The numbers were not newly measured in patent US10172810B2 (priority 2003, dated 2019), which cites them from elsewhere.

The conditions of this data set: pH 6.8.

In the case of `CN1CCCC1c1cccnc1` (stereo not shown) [nicotine], the “nicotine in the free base form” value is on record as “about 10%”.
